# Experimental data reported in patent US20260053932A1, “COMPOUNDS AND METHODS FOR THE TARGETED DEGRADATION OF ANDROGEN RECEPTOR AND ASSOCIATED METHODS OF USE” (Arvinas Operations, Inc., priority 2020, published 2026).
# Like-named read-outs stand apart in the source and are kept apart here.
# Tested on: androgen receptor (AR) in LNCaP and/or VCaP cells
# Experiment: Androgen Receptor ELISA assay (AR degradation)
# Assay type: cell-based
# Description: Androgen Receptor ELISA Assay. […] The protocols used with VCaP cells are described below.
# The cells were grown for a minimum of 3 days.
# (2)(i) A 10× stock plate in media was made; (ii) 2.5 μL of the 1000× stock was transferred to a new 10× stock plate (use 12 channel pipet, start at A (DMSO control) work thru H. When 247.5 µL of media was added to this plate, it served as a 10× stock; (iii) made media+1 nM R1881 for making 10× stock plate; (iv) added 247.5 μL of media with 1 nM R1881 to each well of the 10× stock plate, mix.
# Then 22 μL of 10× stock was added to cells and incubated for 5 hours. […] Media was aspirated, and 100 μL 1× cell lysis buffer/well was added. The cells were placed on a shaker located in a cold room for 10 minutes and shaken at speed 7. The lysate mixture was mix and 20 μL transferred to 100 μl of Diluent in ELISA plate (0.15 μg/ml-[…]). The lysate-diluent mixture was store at 4° C. overnight on a shaker located in a cold room at speed 5 (gentle swirl).
# The lysate-diluent mixture was shaken for 30 minutes at 37° C. The mouse AR antibody, anti-mouse antibody, TMB, and STOP solution were allowed to come to room temperature. The 1×ELISA buffer included in kit was made and loaded in reservoir. Media from the plate was discarded, the ELISA plate was tapped hard on paper towel, and washed 4×200 μl ELISA wash buffer using a plate washer for the first three washes and an eight channel aspirator for the fourth wash to more thoroughly aspirate the solution.
# Next, 100 μL/well of mouse AR detection Ab was added; the plate was covered and shaken at 37° C. for 1 hour; media was discarded from the plates, the plates tapped on a paper towel and washed four times with 200 μL ELISA wash buffer with a plate washer for the first three washes and an eight channel aspirator for the fourth wash; 100 μL/well of anti-mouse—HRP conjugated Ab (comes with the kit) was added; the plates was cover and shaken at 37° C. for 30 minutes; the TMB reagent was allowed to come to room temperature; the media from the plate was discarded, the plates tapped on paper towel, and washed four times with 200 μL ELISA wash buffer with a plate washer for the first three washes and an eight channel aspirator for the fourth wash; plates were tapped on paper towel; 100 μL TMB was added to each well and the plate shaken for 2 minutes—while watching color. STOP solution (100 μL) was added when light blue color developed.
# Data was analyzed and plotted using GraphPad Prism software. Exemplary compounds of Tables 1A, 1B, and 1C were assayed and the data shown below in Tables 2A, 2B, and 2C. DC50 (nM) categories (degradation of AR ELISA in LNCaP and/or VCaP cells) of Tables 2A, 2B, and 2C are as follows: A<1 nM; 1≤B<10 nM; 10≤C<100 nM; D≥100 nM. Dmax (%) categories (degradation of AR ELISA in LNCaP and/or VCaP cells) of Table 2 are as follows: A≥70; 50≤B<70; C<50
# [1] = degradation of AR ELISA in LNCaP and/or VCaP cells, Table 2C, read-out: DC50 Code*
# [2] = LNCaP and/or VCaP cells, 5 hours incubation, media with R1881, read-out: DC50 Code* (degradation of AR ELISA)
DC50 [1],DC50 [2],Compound
< 1 nM,,"COc1cc(O[C@H]2C[C@H](N(CC3CCN(c4cnc(C(=O)N[C@H]5C(C)(C)[C@H](Oc6ccc(C#N)c(Cl)c6)C5(C)C)cn4)CC3)C(C)C)C2)cc2c1CN(C1CCC(=O)NC1=O)C2=O (mixture of isomers) [compound 226, rac-N-((1r,3r)-3-(3-chloro-4-cyanophenoxy)-2,2,4,4-tetramethylcyclobutyl)-5-(4-((((1r,3r)-3-((2-(2,6-dioxopiperidin-3-yl)-7-methoxy-3-oxoisoindolin-5-yl)oxy)cyclobutyl) (isopropyl)amino)methyl)piperidin-1-yl)pyrazine-2-carboxamide]"
< 1 nM,,"Cc1cc(O[C@H]2C(C)(C)[C@H](NC(=O)c3cnc(N4CCC(CCN5CC(Oc6ccc7c(c6)C(=O)N(C6CCC(=O)NC6=O)C7=O)C5)CC4)cn3)C2(C)C)cc(C)c1C#N (some centres unmarked) [compound 115, N-((1r,3r)-3-(4-cyano-3,5-dimethylphenoxy)-2,2,4,4-tetramethylcyclobutyl)-5-(4-(2-(3-((2-(2,6-dioxopiperidin-3-yl)-1,3-dioxoisoindolin-5-yl)oxy)azetidin-1-yl)ethyl)piperidin-1-yl)pyrazine-2-carboxamide]"
,< 1 nM,"COc1cc(O[C@H]2CC[C@H](NC(=O)c3cnc(N4CC(CN(C(C)C)[C@H]5C[C@H](Oc6ccc7c(c6)C(=O)N(C6CCC(=O)NC6=O)C7=O)C5)C4)nc3)CC2)ccc1C#N (some centres unmarked) [Compound 57, N-((1r,4r)-4-(4-cyano-3-methoxyphenoxy)cyclohexyl)-2-(3-((((1r,3r)-3-((2-(2,6-dioxopiperidin-3-yl)-1,3-dioxoisoindolin-5-yl)oxy)cyclobutyl) (isopropyl)amino)methyl)azetidin-1-yl)pyrimidine-5-carboxamide]"
< 1 nM,,"Cc1cc(O[C@H]2C(C)(C)[C@H](NC(=O)c3ccc(N4CCC(CN(C(C)C)[C@H]5C[C@H](Oc6ccc7c(c6)C(=O)N([C@H]6CCC(=O)NC6=O)C7=O)C5)CC4)cc3)C2(C)C)cc(C)c1C#N [compound 205, N-((1r,3r)-3-(4-cyano-3,5-dimethylphenoxy)-2,2,4,4-tetramethylcyclobutyl)-4-(4-((((1S,3r)-3-((2-((S)-2,6-dioxopiperidin-3-yl)-1,3-dioxoisoindolin-5-yl)oxy)cyclobutyl) (isopropyl)amino)methyl)piperidin-1-yl)benzamide]"
,> 100 nM,"COc1cc(O[C@H]2C[C@H](N(CC3CCN(c4ncc(C(=O)N[C@@H]5CC[C@H](Oc6cc(C)c(C#N)c(C)c6)C5)cn4)CC3)C(C)C)C2)cc2c1C(=O)N(C1CCC(=O)NC1=O)C2=O (stereo partly drawn) [Compound 4, N-((1R,3S)-3-(4-cyano-3,5-dimethylphenoxy)cyclopentyl)-2-(4-((((1r,3R)-3-((2-(2,6-dioxopiperidin-3-yl)-7-methoxy-1,3-dioxoisoindolin-5-yl)oxy)cyclobutyl) (isopropyl)amino)methyl)piperidin-1-yl)pyrimidine-5-carboxamide]"
< 1 nM,,"Cc1cc(O[C@H]2C(C)(C)[C@H](NC(=O)c3cnc(N4CCC(CN(CC(F)F)[C@H]5C[C@H](Oc6ccc7c(c6)CN(C6CCC(=O)NC6=O)C7=O)C5)CC4)nc3)C2(C)C)cc(C)c1C#N (some centres unmarked) [compound 97, N-((1r,3r)-3-(4-cyano-3,5-dimethylphenoxy)-2,2,4,4-tetramethylcyclobutyl)-2-(4-(((2,2-difluoroethyl)((1r,3r)-3-((2-(2,6-dioxopiperidin-3-yl)-1-oxoisoindolin-5-yl)oxy)cyclobutyl)amino)methyl)piperidin-1-yl)pyrimidine-5-carboxamide]"
1 to 10 nM,,"COc1cc(O[C@H]2C[C@H](N(CC(F)F)CC3CCN(c4ccc(C(=O)N[C@H]5C(C)(C)[C@H](Oc6ccc(C#N)c(Cl)c6)C5(C)C)cc4)CC3)C2)cc2c1C(=O)N(C1CCC(=O)NC1=O)C2=O (some centres unmarked) [compound 136, N-((1r,3r)-3-(3-chloro-4-cyanophenoxy)-2,2,4,4-tetramethylcyclobutyl)-4-(4-(((2,2-difluoroethyl)((1r,3r)-3-((2-(2,6-dioxopiperidin-3-yl)-7-methoxy-1,3-dioxoisoindolin-5-yl)oxy)cyclobutyl)amino)methyl)piperidin-1-yl)benzamide]"
,< 1 nM,"COc1cc(O[C@H]2CC[C@H](NC(=O)c3cnc(N4CCC(CN(C(C)C)[C@H]5C[C@H](Oc6cc(OC)c7c(c6)C(=O)N(C6CCC(=O)NC6=O)C7=O)C5)CC4)cn3)CC2)ccc1C#N (some centres unmarked) [Compound 38, N-((1r,4r)-4-(4-cyano-3-methoxyphenoxy)cyclohexyl)-5-(4-((((1r,3r)-3-((2-(2,6-dioxopiperidin-3-yl)-7-methoxy-1,3-dioxoisoindolin-5-yl)oxy)cyclobutyl) (isopropyl)amino)methyl)piperidin-1-yl)pyrazine-2-carboxamide]"
,< 1 nM,"COc1cc(O[C@H]2C[C@H](N(CC3CCN(c4cnc(C(=O)N[C@H]5CC[C@H](Oc6ccc(C#N)c(C)c6)CC5)cn4)CC3)C(C)C)C2)cc2c1C(=O)N(C1CCC(=O)NC1=O)C2=O (some centres unmarked) [Compound 78, N-((1r,4r)-4-(4-cyano-3-methylphenoxy)cyclohexyl)-5-(4-((((1r,3r)-3-((2-(2,6-dioxopiperidin-3-yl)-7-methoxy-1,3-dioxoisoindolin-5-yl)oxy)cyclobutyl) (isopropyl)amino)methyl)piperidin-1-yl)pyrazine-2-carboxamide]"
< 1 nM,,"Cc1cc(O[C@H]2C(C)(C)[C@H](NC(=O)c3cnc(N4CCC(CN5CC(Oc6ccc7c(c6)C(=O)N(C6CCC(=O)NC6=O)C7=O)C5)CC4)cn3)C2(C)C)cc(C)c1C#N (some centres unmarked) [compound 99, N-((1r,3r)-3-(4-cyano-3,5-dimethylphenoxy)-2,2,4,4-tetramethylcyclobutyl)-5-(4-((3-((2-(2,6-dioxopiperidin-3-yl)-1,3-dioxoisoindolin-5-yl)oxy)azetidin-1-yl)methyl)piperidin-1-yl)pyrazine-2-carboxamide]"
< 1 nM,,"COc1cc(O[C@H]2C[C@H](N(C)C3CCN(c4ccc(C(=O)N[C@H]5C(C)(C)[C@H](Oc6cc(C)c(C#N)c(C)c6)C5(C)C)cc4)CC3)C2)cc2c1C(=O)N(C1CCC(=O)NC1=O)C2=O (mixture of isomers) [compound 189, rac-N-((1r,3r)-3-(4-cyano-3,5-dimethylphenoxy)-2,2,4,4-tetramethylcyclobutyl)-4-(4-(((1r,3r)-3-((2-(2,6-dioxopiperidin-3-yl)-7-methoxy-1,3-dioxoisoindolin-5-yl)oxy)cyclobutyl) (methyl)amino)piperidin-1-yl)benzamide]"
,1 to 10 nM,"N#Cc1ccc(O[C@H]2CC[C@H](NC(=O)c3ccn(C4CCC(CN5CCN(c6ccc7c(c6)CN(C6CCC(=O)NC6=O)C7=O)CC5)CC4)n3)CC2)cc1Cl (some centres unmarked) [Compound 71, N-((1r,4r)-4-(3-chloro-4-cyanophenoxy)cyclohexyl)-1-(4-((4-(2-(2,6-dioxopiperidin-3-yl)-1-oxoisoindolin-5-yl)piperazin-1-yl)methyl)cyclohexyl)-1H-pyrazole-3-carboxamide]"
< 1 nM,,"CCN(CC1CCN(c2ncc(C(=O)N[C@H]3C(C)(C)[C@H](Oc4cc(C)c(C#N)c(C)c4)C3(C)C)cn2)CC1)[C@H]1C[C@H](Oc2ccc3c(c2)C(=O)N(C2CCC(=O)NC2=O)C3=O)C1 (some centres unmarked) [compound 83, N-((1r,3r)-3-(4-cyano-3,5-dimethylphenoxy)-2,2,4,4-tetramethylcyclobutyl)-2-(4-((((1r,3r)-3-((2-(2,6-dioxopiperidin-3-yl)-1,3-dioxoisoindolin-5-yl)oxy)cyclobutyl)(ethyl)amino)methyl)piperidin-1-yl)pyrimidine-5-carboxamide]"
,> 100 nM,"COc1cc(O[C@@H]2CC[C@@H](NC(=O)c3cnc(N4CCC(CN(C(C)C)[C@H]5C[C@H](Oc6ccc7c(c6)C(=O)N(C6CCC(=O)NC6=O)C7=O)C5)CC4)cn3)C2)ccc1C#N (stereo partly drawn) [Compound 10, N-((1R,3R)-3-(4-cyano-3-methoxyphenoxy)cyclopentyl)-5-(4-((((1r,3R)-3-((2-(2,6-dioxopiperidin-3-yl)-1,3-dioxoisoindolin-5-yl)oxy)cyclobutyl) (isopropyl)amino)methyl)piperidin-1-yl)pyrazine-2-carboxamide]"
